# Assay results reported in ChEMBL document CHEMBL3868600, “Antibacterial profiling of abietane-type diterpenoids” (Bioorg Med Chem, 2017).
# How the values were obtained:
# Escherichia coli [1] = test: Growth inhibition of Escherichia coli ATCC 25922 at 50 uM after 24 hrs by broth microdilution method; format: functional; conditions: ATCC 25922, 24 h, read-out: GI
# Candida albicans [2] = test: Growth inhibition of Candida albicans ATCC 90028 at 50 uM after 48 hrs by broth microdilution method; format: functional; conditions: ATCC 90028, 48 h, read-out: GI
# Staphylococcus aureus [3] = test: Growth inhibition of Staphylococcus aureus ATCC 25923 at 50 uM after 24 hrs by broth microdilution method; format: functional; conditions: ATCC 25923, 24 h, read-out: GI
# Cutibacterium acnes = test: Antibacterial activity against Propionibacterium acnes ATCC 6919 after 24 hrs by broth microdilution method; format: functional; conditions: ATCC 6919, 24 h
# Streptococcus mitis = test: Antibacterial activity against Streptococcus mitis NCIMB 13770 after 24 hrs by broth microdilution method; format: functional; conditions: NCIMB 13770, 24 h
# [4] = test system: Staphylococcus epidermidis; test: Antibacterial activity against Staphylococcus epidermidis ATCC 12228 after 24 hrs by broth microdilution method; format: functional; conditions: ATCC 12228, 24 h
# Salmonella typhimurium = test: Antibacterial activity against Salmonella typhimurium ATCC 13311 after 24 hrs by broth microdilution method; format: functional, Salmonella enterica subsp. enterica serovar Typhimurium; conditions: Salmonella enterica, ATCC 13311, 24 h
# Candida albicans [5] = test: Antifungal activity against Candida albicans ATCC 90028 after 48 hrs by broth microdilution method; format: functional; conditions: ATCC 90028, 48 h
# [6] = Antifungal activity against Rhodotorula mucilaginosa ATCC 66034 after 48 hrs by broth microdilution method; format: functional
# Staphylococcus aureus [7] = test: Antibacterial activity against methicillin-resistant Staphylococcus aureus ATCC 4330 after 24 hrs by broth microdilution method; format: functional; conditions: ATCC 4330, 24 h
# [8] = Antifungal activity against Cladosporium cladosporioides ATCC 16022 after 48 hrs by broth microdilution method; format: functional
# Staphylococcus aureus [9] = test: Antibacterial activity against Staphylococcus aureus ATCC 25923 after 24 hrs by broth microdilution method; format: functional; conditions: ATCC 25923, 24 h
# Escherichia coli [10] = test: Antibacterial activity against Escherichia coli ATCC 25922 after 24 hrs by broth microdilution method; format: functional
# Staphylococcus aureus [11] = test: Ratio of MIC90 for Staphylococcus aureus ATCC 25923 to MIC90 for methicillin-resistant Staphylococcus aureus ATCC 4330; format: functional
Compound,inhibition of growth at 50 µM (Escherichia coli [1]) [%],inhibition of growth at 50 µM (Candida albicans [2]) [%],inhibition of growth at 50 µM (Staphylococcus aureus [3]) [%],MIC90 (Cutibacterium acnes) [µg/mL],MIC90 (Streptococcus mitis) [µg/mL],MIC90 [4] [µg/mL],MIC90 (Salmonella typhimurium) [µg/mL],other results
COC(=O)CNC(=O)[C@]1(C)CCC[C@@]2(C)[C@H]1CC=C1C=C(C(C)C)CC[C@@H]12,8,20,13,–,–,–,–,–
CN(C)[C@@H]1C(O)=C(C(N)=O)C(=O)[C@@]2(O)C(O)=C3C(=O)c4c(O)cccc4[C@@](C)(O)[C@H]3C[C@@H]12 [TETRACYCLINE],–,–,–,2,1,1,16,–
C[C@@H]1[C@H](O)[C@@H](C)/C=C/C=C/C=C/C=C/C=C/C=C/C=C/[C@H](O[C@@H]2O[C@H](C)[C@@H](O)[C@H](N)[C@@H]2O)C[C@@H]2O[C@](O)(C[C@@H](O)C[C@@H](O)[C@H](O)CC[C@@H](O)C[C@@H](O)CC(=O)O[C@H]1C)C[C@H](O)[C@H]2C(=O)O [AMPHOTERICIN B],–,–,–,–,–,–,–,MIC90 (Candida albicans [5]): 16 µg/mL
COC(=O)[C@H](CC1CCCCC1)NC(=O)[C@]1(C)CCC[C@@]2(C)[C@H]1CC=C1C=C(C(C)C)CC[C@@H]12,3,-35,-8,–,–,–,–,–
COC(=O)[C@H](CO)NC(=O)[C@]1(C)CCC[C@@]2(C)[C@H]1CC=C1C=C(C(C)C)CC[C@@H]12,9,39,76,> 125,> 125,16,> 125,MIC90 [6]: 31 µg/mL; MIC90 (Staphylococcus aureus [7]): 62 µg/mL; MIC90 [8]: > 125 µg/mL; IC50 (Staphylococcus aureus [9]): 21 to 30 µg/mL; MIC90 (Staphylococcus aureus [9]): 61 µg/mL
GENTAMICIN,–,–,–,–,–,–,–,MIC90 (Escherichia coli [10]): 2 µg/mL
O=C(O)c1cn(C2CC2)c2cc(N3CCNCC3)c(F)cc2c1=O [CIPROFLOXACIN],–,–,–,–,–,–,–,MIC90 (Staphylococcus aureus [9]): 1 µg/mL
COC(=O)[C@H](CO)NC(=O)[C@]1(C)CCC[C@]2(C)c3ccc(C(C)C)cc3CC[C@@H]12,–,–,–,–,–,–,–,IC50 (Staphylococcus aureus [9]): 21 to 30 µg/mL; MIC90 (Staphylococcus aureus [9]): > 125 µg/mL
COC(=O)[C@H](CC(C)C)NC(=O)[C@]1(C)CCC[C@@]2(C)[C@H]1CC=C1C=C(C(C)C)CC[C@@H]12,6,-8,-9,–,–,–,–,–
COC(=O)[C@@H](CO)NC(=O)[C@]1(C)CCC[C@]2(C)c3ccc(C(C)C)cc3CC[C@@H]12,–,–,–,16,8,8,31,Ratio (Staphylococcus aureus [11]): 7.5; MIC90 [6]: 31 µg/mL; MIC90 (Staphylococcus aureus [7]): 8 µg/mL; MIC90 [8]: > 125 µg/mL; IC50 (Staphylococcus aureus [9]): 21 to 30 µg/mL; MIC90 (Staphylococcus aureus [9]): 60 µg/mL
CC1(C)S[C@@H]2[C@H](NC(=O)[C@H](N)c3ccccc3)C(=O)N2[C@H]1C(=O)O [AMPICILLIN],–,–,–,0.125,2,2,0.5,–
CC[C@H](NC(=O)[C@]1(C)CCC[C@@]2(C)[C@H]1CC=C1C=C(C(C)C)CC[C@@H]12)C(=O)OC,11,23,-12,–,–,–,–,–
CC(C)C1=CC2=CC[C@@H]3[C@](C)(CCC[C@@]3(C)C(=O)O)[C@H]2CC1 [ABIETIC ACID],0,-53,44 to 45,4,16,8,31,MIC90 [6]: 31 µg/mL; MIC90 (Staphylococcus aureus [7]): 31 µg/mL; MIC90 [8]: 63 µg/mL; MIC90 (Staphylococcus aureus [9]): 63 µg/mL
O=C(N[C@H](CO)[C@H](O)c1ccc([N+](=O)[O-])cc1)C(Cl)Cl [CHLORAMPHENICOL],–,–,–,4,4,8,8,–
CC[C@H]1OC(=O)[C@H](C)[C@@H](O[C@H]2C[C@@](C)(OC)[C@@H](O)[C@H](C)O2)[C@H](C)[C@@H](O[C@@H]2O[C@H](C)C[C@H](N(C)C)[C@H]2O)[C@](C)(OC)C[C@@H](C)C(=O)[C@H](C)[C@@H](O)[C@]1(C)O [CLARITHROMYCIN],–,–,–,0.5,0.25,–,–,–
COC(=O)[C@@H](NC(=O)[C@]1(C)CCC[C@@]2(C)[C@H]1CC=C1C=C(C(C)C)CC[C@@H]12)C(C)C,6,0,6,–,–,–,–,–
OC(Cn1cncn1)(Cn1cncn1)c1ccc(F)cc1F,–,–,–,–,–,–,–,MIC90 [6]: 0.5 µg/mL; MIC90 [8]: 520 µg/mL
COC(=O)[C@H](Cc1ccccc1)NC(=O)[C@]1(C)CCC[C@@]2(C)[C@H]1CC=C1C=C(C(C)C)CC[C@@H]12,6,-13,-1,–,–,–,–,–
NYSTATIN,–,–,–,–,–,–,–,MIC90 [6]: 0.125 µg/mL; MIC90 [8]: 64 µg/mL
